Measured values published in patent US8901139B2, “Tricyclic indole derivatives and methods of use thereof” (Merck Sharp & Dohme Corp., priority 2008, dated 2014).

System: HCV replicon cells (replicon RNA level)
Test: Cell-Based HCV Replicon Assay
Conditions: Hepatitis C virus, 72 h; replicon RNA by real time PCR (Taqman), day 3; ΔCT=3.2 over baseline
Description: To measure cell-based anti-HCV activity of the a Compound of Formula (I), replicon cells were seeded at 5000 cells/well in 96-well collagen I-coated Nune plates in the presence of the Compound of Formula (I). Various concentrations of a Compound of Formula (I), typically in 10 serial 2-fold dilutions, were added to the assay mixture, with the starting concentration ranging from 250 μM to 1 μM. The final concentration of DMSO was 0.5%, fetal bovine serum was 5%, in the assay media. Cells were harvested on day 3 by the addition of 1× cell lysis buffer (Ambion cat #8721). The replicon RNA level was measured using real time PCR (Taqman assay). The amplicon was located in 5B. The PCR primers were: 5B.2F, ATGGACAGGCGCCCTGA (SEQ. ID. NO. 2); 5B.2R, […] (SEQ. ID. NO. 3);the probe sequence was FAM-labeled CACGCCATGCGCTGCGG (SEQ. ID. NO. 4). GAPDH RNA was used as endogenous control and was amplified in the same reaction as NS5B (multiplex PCR) using primers and VIC-labeled probe recommended by the manufacturer (PE Applied Biosystem). The real-time RT-PCR reactions were run on ABI PRISM 7900HT Sequence Detection System using the following program: 48° C. for 30 minutes, 95° C. for 10 minutes, 40 cycles of 95° C. for 15 sec, 60° C. for 1 minute. The ΔCT values (CT5B-CTGAPDH) were plotted against the concentration of test compound and fitted to the sigmoid dose-response model using XLfit4 (MDL). EC50 was defined as the concentration of inhibitor necessary to achieve ΔCT=1 over the projected baseline; EC90 the concentration necessary to achieve ΔCT=3.2 over the baseline. Alternatively, to quantitate the absolute amount of replicon RNA, a standard curve was established by including serially diluted T7 transcripts of replicon RNA in the Taqman assay. All Taqman reagents were from PE Applied Biosystems. Such an assay procedure was described in detail in e.g. Malcolm et al., Antimicrobial Agents and Chemotherapy 50: 1013-1020 (2006).
HCV replicon assay data was calculated for selected compounds of the present invention using this method.

SMILES	EC90
O=C(O)c1c(-c2ccc[nH]c2=O)c2c3c(c(F)cc2n1Cc1cc2c(=O)[nH]c(=O)[nH]c2cc1F)CCO3 [Compound 165]	< 100 nM
CN(C)CCOC(=O)c1c(-c2ccc[nH]c2=O)c2c3occc3c(F)cc2n1Cc1cc2c(N)ncnc2cc1F [Compound 185]	< 100 nM
CN(C)CCOC(=O)c1c(-c2ccc[nH]c2=O)c2c3c(c(F)cc2n1Cc1cc2cn[nH]c2cc1F)CCO3 [Compound 174]	< 100 nM
Cn1cnc2cc(Cl)c(Cn3c(C(=O)O)c(-c4ccc[nH]c4=O)c4c5occc5c(F)cc43)cc21 [Compound 162]	< 100 nM
C=CCNCCOC(=O)c1c(-c2ccc[nH]c2=O)c2c3occc3c(F)cc2n1Cc1cc2cn[nH]c2cc1CC=C [Compound 188]	< 100 nM
Cc1cc2[nH]ncc2cc1Cn1c(C(=O)O)c(-c2ccc[nH]c2=O)c2c3occc3c(F)cc21 [Compound 136]	< 100 nM
CN(C)CCOC(=O)c1c(-c2ccc[nH]c2=O)c2c3occc3c(F)cc2n1Cc1cc(N)nc2ccccc12 [Compound 177]	< 100 nM
CN(C)CCCOC(=O)c1c(-c2ccc[nH]c2=O)c2c3occc3c(F)cc2n1Cc1cc2c(=O)[nH]cnc2cc1F [Compound 189]	< 100 nM
O=Cc1ccc(F)c(Cn2c(C(=O)O)c(-c3ccc[nH]c3=O)c3c4occc4c(F)cc32)c1 [Compound 131]	< 100 nM
Cc1cc2[nH]ncc2cc1Cn1c(C(=O)OCCN(C)C)c(-c2ccc[nH]c2=O)c2c3occc3c(F)cc21 [Compound 172]	< 100 nM
N#Cc1ccc(F)c(Cn2c(C(=O)O)c(-c3ccc[nH]c3=O)c3c4occc4c(F)cc32)c1 [Compound 129]	< 100 nM
O=C(O)c1c(-c2ccc[nH]c2=O)c2c3occc3c(F)cc2n1Cc1cc2c(=O)[nH]cnc2cc1Cl [Compound 164]	< 100 nM
Nc1ncnc2cc(F)c(Cn3c(C(=O)O)c(-c4ccc[nH]c4=O)c4c5occc5c(F)cc43)cc12 [Compound 161]	< 100 nM
O=C(O)c1c(-c2ccc[nH]c2=O)c2c3occc3c(F)cc2n1Cc1cc2cc[nH]c2cc1Br [Compound 170]	< 100 nM
O=C(O)c1c(-c2ccc[nH]c2=O)c2c3occc3c(F)cc2n1Cc1cc2cn[nH]c2cc1Cl [Compound 150]	< 100 nM
O=C(O)c1c(-c2ccc[nH]c2=O)c2c3c(c(F)cc2n1Cc1cc2cn[nH]c2cc1Cl)CCO3 [Compound 157]	< 100 nM
